Key:
Experiment in all cases: relative viability (nuclei count vs DMSO), 5 days (fraction); higher = more cells survive
[1] = compound: CCN1C(=O)C2=CC(=C(N=C2N(C1=O)C3CC3)N)C(=O)N + Cc1nc(NC(=O)N2CCC[C@H]2C(N)=O)sc1-c1ccnc(C(C)(C)C(F)(F)F)c1 [Alpelisib] (partner 2 µM)
Summary of the method: (§1)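 Relative viability divides the nuclei count in treated wells by that in vehicle wells. Lung cancer cell lines were seeded in 1536-well plates, dosed by pin tool the next day, and fixed and stained after 5 days in one step with final 0.05% Triton X-100, 1% formaldehyde and 1 ug/ml Hoechst. Dosing was a single drug or a fixed anchor-drug dose plus five library-drug doses (not always all listed) in √10 steps, and values are medians of duplicate plates imaged at 4×.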

[2] = compound: CCN1C(=O)C2=CC(=C(N=C2N(C1=O)C3CC3)N)C(=O)N + N=C(N)NC(=N)NCCc1ccccc1 [Phenformin] (partner 250 µM)
Summary of the method: as §1

[3] = compound: CCN1C(=O)C2=CC(=C(N=C2N(C1=O)C3CC3)N)C(=O)N + Cc1nc(Nc2ncc(C(=O)Nc3c(C)cccc3Cl)s2)cc(N2CCN(CCO)CC2)n1 [Dasatinib] (partner 0.075 µM)
Summary of the method: as §1

[4] = compound: CCN1C(=O)C2=CC(=C(N=C2N(C1=O)C3CC3)N)C(=O)N + CS(=O)(=O)CCNCc1ccc(-c2ccc3ncnc(Nc4ccc(OCc5cccc(F)c5)c(Cl)c4)c3c2)o1 [Lapatinib] (partner 2 µM)
Summary of the method: as §1

[5] = compound: CCN1C(=O)C2=CC(=C(N=C2N(C1=O)C3CC3)N)C(=O)N + CS(=O)(=O)N1CCN(Cc2cc3nc(-c4cccc5[nH]ncc45)nc(N4CCOCC4)c3s2)CC1 [Pictilisib] (partner 1 µM)
Summary of the method: as §1

Cell Line	relative viability ([1]; first compound 0.253 µM)	relative viability ([1]; first compound 0.8 µM)	relative viability ([1]; first compound 2.53 µM)	relative viability ([1]; first compound 8 µM)	relative viability ([2]; first compound 0.8 µM)	relative viability ([2]; first compound 2.53 µM)	relative viability ([2]; first compound 8 µM)	relative viability ([3]; first compound 0.8 µM)	relative viability ([3]; first compound 2.53 µM)	relative viability ([3]; first compound 8 µM)	relative viability ([4]; first compound 0.253 µM)	relative viability ([4]; first compound 0.8 µM)	relative viability ([4]; first compound 2.53 µM)	relative viability ([4]; first compound 8 µM)	relative viability ([5]; first compound 0.253 µM)	relative viability ([5]; first compound 0.8 µM)	relative viability ([5]; first compound 2.53 µM)	relative viability ([5]; first compound 8 µM)	relative viability ([2]; first compound 0.253 µM)	relative viability ([3]; first compound 0.253 µM)
HCC-366	0.442	0.505	0.456	0.468	0.595	0.589	0.589	0.656	0.518	0.611	1.06	0.966	0.988	1.05	0.168	0.162	0.0835	0.11	–	–
HCC-827	0.915	0.964	0.941	0.88	0.383	0.382	0.382	0.348	0.266	0.284	0.183	0.219	0.17	0.206	0.954	1.08	1.16	1.03	0.439	0.348
HOP-62	1	1.06	0.778	0.964	0.696	0.633	0.77	0.614	0.695	0.598	0.844	1.29	1.01	1.1	1.01	0.883	0.413	0.804	0.678	0.715
IA-LM	0.743	0.816	0.584	0.696	–	–	–	–	–	–	0.877	0.902	0.88	0.747	0.358	0.356	0.343	0.339	–	–
LC-2-ad	0.838	0.897	0.881	0.914	0.556	0.505	0.587	0.526	0.652	0.698	0.841	0.747	0.943	0.903	0.465	0.409	0.514	0.506	0.521	0.537
LCLC-97TM1	0.258	–	–	0.275	0.452	0.375	0.407	0.948	0.855	0.883	1.01	–	–	1.05	0.203	–	–	0.223	0.383	0.793
LCLC-103H	0.935	0.962	0.907	0.934	0.305	0.291	0.364	0.426	0.457	0.445	–	–	–	–	0.57	0.581	0.501	0.582	0.341	0.453
LK-2	0.761	1.36	1.3	1.13	0.591	0.408	0.535	0.294	0.303	0.221	0.89	0.878	0.995	1.09	0.547	0.507	0.525	0.556	0.375	0.312
LOU-NH91	0.687	0.716	0.721	0.684	0.645	0.822	0.694	0.526	0.54	0.527	0.869	0.732	0.83	0.766	0.509	0.516	0.541	0.538	0.466	0.499
LU99A	0.488	0.531	0.527	0.524	0.915	0.77	0.72	0.548	0.528	0.511	1.04	0.984	0.984	1.09	0.305	0.332	0.303	0.363	0.778	0.541
LXF-289	1.04	1.07	1.03	1.05	0.552	0.519	0.538	0.348	0.28	0.212	0.867	0.951	0.938	0.89	0.831	0.85	0.819	0.775	0.519	0.229
NCI-H23	0.638	0.741	0.615	0.789	0.768	0.749	0.675	0.746	0.762	0.656	1.21	1.08	1.06	1.11	0.453	0.447	0.473	0.487	0.789	0.786
NCI-H322M	0.855	0.694	0.765	0.656	0.736	0.75	0.868	0.224	0.256	0.248	0.585	0.536	0.562	0.592	0.452	0.504	0.486	0.488	0.822	0.275
NCI-H358	0.795	0.91	0.819	0.87	0.351	0.388	0.298	0.148	0.189	0.17	0.424	0.417	0.526	0.612	0.4	0.343	0.284	0.424	0.355	0.157
NCI-H441	0.957	0.756	0.637	0.598	0.85	0.78	0.833	0.585	0.728	0.683	–	–	–	–	0.561	0.48	0.462	0.576	0.762	0.734
NCI-H522	–	–	–	–	0.565	0.705	0.546	0.858	0.992	0.753	–	–	–	–	–	–	–	–	0.552	0.761
NCI-H1650	–	–	–	–	0.4	0.367	0.379	0.264	0.308	0.329	0.337	0.815	0.746	0.904	0.501	0.547	0.521	0.589	0.47	0.279
NCI-H1703	0.339	0.342	0.31	0.368	–	–	–	–	–	–	1.01	0.946	1.09	1.43	0.243	0.224	0.275	0.269	–	–
SW 900	–	–	–	–	0.625	0.493	0.563	0.599	0.68	0.511	–	–	–	–	–	–	–	–	0.498	0.447

— the supplement of paper PMC10307832
